Reference: patent US20260027083A1, “USE OF PPAR AGONIST FOR IMPROVEMENT OF ENERGY METABOLISM” (NOVMETAPHARMA CO., LTD., priority 2022, published 2026)

System: high-fat diet mice
Test: High-fat diet mice: organ weights
Format: in vivo, C57BL/6J mice
Conditions: 5 mg/kg/day oral, 60% HFD, vs HFD-V, FIG. 9
Method: The care and use of experimental animals were carried out with the approval of the Institutional Animal Care and Use Committee of Pohang University of Science and Technology. C57BL/6J mice were purchased from Japan SLC, Inc. 50 four-week-old male C57/BL/6J mice were acclimated for 2 weeks. The mice were randomly divided and orally administered with vehicle or 5 mg/kg/day of D6 or WY14643 for 13 weeks (oral gavage), and obesity was induced by a 60% high-fat diet (#D12492, Research diets, NJ, USA). Body weights and food intakes were measured weekly from 6 weeks of age, and after 16 weeks of age, adipose tissue and muscle volumes were measured using a Trimodality imaging system.
To confirm a metabolic disease inhibitory effect of the compound represented by Chemical Formula 1 through animal experiments, mice were acclimated for 2 weeks, and then obesity was induced by feeding a 60% high fat diet (HFD) and orally administered with vehicle or 5 mg/kg/day of the compound represented by Chemical Formula 1 (D6) or WY14643 for 13 weeks. Experiments such as IP-GTT, IP-ITT, and micro-CT were performed at the week 10 of drug administration (FIG. 5).

COc1ccc(-c2cc(=O)oc3c(C)c(OC(=O)[C@H](Cc4c[nH]c5ccccc45)NC(=O)OC(C)(C)C)ccc23)cc1 [Chemical Formula 1, [4-(4-methoxyphenyl)-8-methyl-2-oxochromen-7-yl] (2S)-3-(1H-indol-3-yl)-2-[(2-methylpropan-2-yl)oxycarbonylamino]propanoate]
epididymal white adipose tissue (eWAT) weight: reduced | liver weight: reduced
